The record followed here is patent publication US12186342B2, “Autologous irradiated whole cell tumor vaccines lentivirally engineered to express CD80, IL-15 and IL-15 receptor alpha” (The Regents of the University of California, priority 2016, dated 2025).

What all share (format): in vivo, mice
In data set [1] the test system is 32Dp210 leukemia. As to the kind of experiment: Dose-finding studies of chemotherapeutic regimens in advanced 32Dp210 leukemia. The conditions noted are these: data not shown. As to the method: (§1) The major clinical application of an autologous AML vaccine strategy would be as post-remission immunotherapy to prolong relapse free survival in patients with MRD. To recapitulate this clinical setting, we developed a murine model of MRD for testing our vaccine. Initially, several chemotherapeutic regimens, previously shown to induce transient responses in 32Dp210 leukemia, were tested^48. […] A different strategy was therefore adopted for achieving post-remission MRD in mice with high leukemia burdens by lentivirally engineering a 32Dp210 cell line to express the herpes thymidine kinase (HSV-TK) suicide gene^36. Using this approach, treatment with ganciclovir (GCV) could be used to induce remission without the confounding immune and cytopenic effects of conventional chemotherapy^49. In this context, GCV treatment should not have a direct impact on leukemia-associated immune deviation, except as associated with reduction of tumor burden, since effects of GCV are primarily restricted to suppression of marrow proliferation, but not inhibition of immune function^50.

Data set [2] deals with 32Dp210-luc-HSV-TK+ leukemia. Kind of data set: Minimal residual disease model: GCV remission induction. As to the method:
FIG. 17A-FIG. 17C depict development of a minimal residual diseased (MRD) model in 32Dp210 leukemia. (FIG. 17A) In vivo bioluminescence analysis of effects of ganciclovir (GCV) treatment of 32Dp210-luc-HSV-TK+ leukemia. Mice inoculated IV with 32Dp210-luc-HSV-TK+ leukemia on day 0 were treated for 14 days with GCV (50 mg/kg) beginning at day 14. Left panel: Day 14 after tumor inoculation, Right panel: Day 28 after tumor inoculation and day 14 of GCV treatment. […] Mean photon counts+S.E.M. per animal are plotted on the y-axis after imaging at day 14 (white bars) and day 28 after tumor inoculation (gray bars). Uninjected controls (n=5) represent normal, non-tumor bearing mice injected with luciferin to establish background levels of in vivo bioluminescence used to define “complete remission”. […] Leukemic mice with tumor progression despite GCV administration (Non-responders, n=3) are depicted in the last two lanes on the right. […] Comparison of the percentage of 32Dp210-GFP+HSVTK+ cells in peripheral blood, spleen and bone marrow of responding mice (MRD). The percentage of GFP+ cells detected by flow cytometric analysis of blood (filled circle), spleen (open triangle), and bone marrow (filled diamonds) from each mouse achieving IVIS defined remission with MRD, are indicated on the Y axis. The mean for each group is designated by a horizontal line for each group as well as the S.E.M. Mice with MRD defined by semi-quantitative in vivo bioluminescence analyses had <5% leukemic cells in all tissues examined consistent with the clinical/pathological definition of leukemic remission.
(§2) At day 10 after IV injection of 1×10^5 32Dp210-luc cells, all mice had detectable leukemia by IVIS, and began a 14 day treatment (50 mg/kg/day) with Ganciclovir (GCV) (APP Pharmaceuticals, LLC, Schaumberg, IL). A higher dose of 100 mg GCV/kg/day was administered to confirm that GCV had minimal or no effects on blood counts (Table 1).
To validate this model, mice were treated daily with GCV once 32Dp210 leukemia was evident by IVIS. […] (FIG. 17A). […] To assess responses after GCV treatment, the frequency of 32Dp210-GFP+/HSV-TK+ cells in spleen, blood, and bone marrow were quantified by flow cytometric analysis (FIG. 17C). […] Lower numbers of GFP+ leukemia cells were detected in spleen after 14 days of GCV.

Data set [3] concerns 32Dp210-luc-HSV-TK+ leukemia. As to the kind of experiment: Post-remission vaccination in the MRD model. The source says:
FIG. 18A-FIG. 18B depict the efficacy of the 32Dp210 vaccine as post-remission therapy to treat MRD. (FIG. 18A) In vivo bioluminescence analyses of 32Dp210-luc-HSV-TK leukemic mice undergoing GCV treatment with or without post-remission vaccination with 32Dp210-CD80-IL-15-IL-15Rα cells. Mice were inoculated with 1×10^5 32Dp210 cells on day 0 as indicated by the schema at the top of the figure. On day 10 mice underwent in vivo bioluminescence imaging and average photon counts per animal were plotted (upper set of bar graphs). N1-N5 represents normal, non-tumor bearing mice injected with luciferin on the same day, to establish background levels. Lanes 1-15 indicate mice inoculated with leukemia and subsequently treated with GCV according to the schema at the top of the figure. Gray bars in lanes 1-5 indicate IVIS analyses of mice that would receive 14 days GCV treatment and no further intervention; Black bars in lanes 6-15 depict IVIS analyses of mice treated with 14 days of GCV treatment that would be followed by serial vaccination with irradiated 32Dp210-IL-15/IL-15Rα/CD80 cells beginning at day 17. Lower panel of bar graphs depicts semi-quantitative IVIS studies after 5 days of GCV administration (day 15) in the same animals analyzed in the upper panel of bar graphs at day 10 after tumor inoculum. […]

Data set [4] is described as follows: Effect of GCV on CBC. The note with it: after 2 weeks of treatment. The method, then: as §2, §1

Turning to `Nc1ccn([C@@H]2O[C@H](CO)[C@@H](O)[C@@H]2O)c(=O)n1` [cytosine arabinoside], the “outcome of dose-finding studies in leukemic mice” value in data set [1] is “either ineffective, or resulted in both toxicity and lethality”.
As to `Nc1nc(O)c2ncn(COC(CO)CO)c2n1` [GCV, ganciclovir], the mice showing remission entry in data set [2] (GCV begun on day 14 after tumor inoculation, read two weeks later (day 28)) is reported as “Seven of 10”. For the same molecule, the “blasts in bone marrow” value in data set [2] (GCV-treated mice in remission) is given as less than 5%. Also, the “GFP+ cells in BM” value in data set [2] (GCV-treated mice in remission, n=7/7) is given as less than 0.5%. In data set [2] (after 14 days of GCV), the “GFP+ leukemia cells in spleen” value is recorded as “Lower numbers”. In data set [2] (mice with MRD, blood, spleen, bone marrow), the “leukemic cells in all tissues examined” value is given as less than 5%. Besides, the relapse after remission entry in data set [3] (14-day GCV with no further therapy) was “eventually relapsed”. In data set [3] (day 5 of GCV administration (day 15), 1×10^5 cells inoculated), the “response by in vivo bioluminescence” value was “most of the leukemic mice had major responses”. Also, in data set [4] (100 mg GCV/kg/day), the Lymphocytes is 2.036 ± 0.279 k/μL, the Monocytes stood at 0.310 ± 0.0364 k/μL, the Neutrophils is reported as 4.141 ± 0.580 k/μL and the “White Blood Cells” value is recorded as 6.638 ± 0.575 k/μL. In addition, the “decline in WBC, neutrophils, hemoglobin, or monocytes” value in data set [4] is given as “no significant decline”. Further, the “number of peripheral lymphocytes” value in data set [4] (remained within the normal range) is given as “only a small reduction”.
